Numbers after ± are expanded uncertainties.
Experiments:
[1] = 298.15 K; 101.33 kPa; Liquid; Pycnometric method
[2] = xn = mol fraction of the nth substance listed; conditions: 298.15 K, 101.3 kPa, Liquid; for viscosity: Concentric cylinders viscometry; for mass density: Pycnometric method

Compound | viscosity ([2]; x1 = 0.1) | viscosity ([2]; x1 = 0.2) | viscosity ([2]; x1 = 0.3) | viscosity ([2]; x1 = 0.4) | viscosity ([2]; x1 = 0.5) | viscosity ([2]; x1 = 0.6) | viscosity ([2]; x1 = 0.7) | viscosity ([2]; x1 = 0.8) | viscosity ([2]; x1 = 0.9) | viscosity ([2]; x1 = 1) | mass density ([2]; x1 = 1) | viscosity ([2]; x2 = 0) | also measured
CCN(C(C)C)C(C)C [N-ethyl-N-(1-methylethyl)-1-methylethanamine] |  |  |  |  |  |  |  |  |  |  |  |  | mass density [1]: 742 ± 3 kg/m3
CCCCCCC(=O)[O-].CC[NH+](C(C)C)C(C)C [N-ethyl-N-isopropylpropan-2-aminium heptanoate] + CC#N | 1.09 ± 0.066 mPa·s | 1.826 ± 0.11 mPa·s | 2.51 ± 0.15 mPa·s | 3.875 ± 0.24 mPa·s | 5.158 ± 0.31 mPa·s | 7.013 ± 0.43 mPa·s | 9 ± 0.55 mPa·s | 11.6 ± 0.71 mPa·s | 13.5 ± 0.83 mPa·s | 12.23 ± 0.76 mPa·s | 866.5 ± 3.8 kg/m3 |  | mass density ([2]; x1 = 0.1016): 820.6 ± 3.3 kg/m3; mass density ([2]; x1 = 0.2003): 840.8 ± 3.4 kg/m3; mass density ([2]; x1 = 0.3046): 849.7 ± 3.5 kg/m3; mass density ([2]; x1 = 0.402): 853.8 ± 3.5 kg/m3; mass density ([2]; x1 = 0.5021): 857.1 ± 3.5 kg/m3; mass density ([2]; x1 = 0.6083): 859.8 ± 3.6 kg/m3; mass density ([2]; x1 = 0.705): 862.3 ± 3.6 kg/m3; mass density ([2]; x1 = 0.8013): 863.9 ± 3.6 kg/m3; mass density ([2]; x1 = 0.9013): 865.4 ± 3.7 kg/m3
CCCCCCC(=O)[O-].CC[NH+](C(C)C)C(C)C [N-ethyl-N-isopropylpropan-2-aminium heptanoate] + O | 21.99 ± 1.3 mPa·s | 43.71 ± 2.6 mPa·s | 41.58 ± 2.5 mPa·s | 31.51 ± 1.9 mPa·s | 26.92 ± 1.6 mPa·s | 23.65 ± 1.4 mPa·s | 22.67 ± 1.4 mPa·s | 18.07 ± 1.1 mPa·s | 14.44 ± 0.89 mPa·s | 12.23 ± 0.76 mPa·s | 866.5 ± 3.8 kg/m3 |  | mass density ([2]; x1 = 0.0998): 966.3 ± 3.9 kg/m3; mass density ([2]; x1 = 0.198): 936.2 ± 3.8 kg/m3; mass density ([2]; x1 = 0.299): 913.6 ± 3.7 kg/m3; mass density ([2]; x1 = 0.4007): 900.3 ± 3.6 kg/m3; mass density ([2]; x1 = 0.5007): 889.9 ± 3.6 kg/m3; mass density ([2]; x1 = 0.5941): 884 ± 3.6 kg/m3; mass density ([2]; x1 = 0.6913): 877.2 ± 3.6 kg/m3; mass density ([2]; x1 = 0.7896): 872.6 ± 3.6 kg/m3; mass density ([2]; x1 = 0.9014): 869.5 ± 3.7 kg/m3
CCCCCCCC(=O)[O-].CC[NH+](C(C)C)C(C)C [N-ethyl-N-isopropylpropan-2-aminium octanoate] + CC#N | 1.291 ± 0.078 mPa·s | 1.947 ± 0.12 mPa·s | 2.865 ± 0.17 mPa·s | 4.921 ± 0.3 mPa·s | 6.897 ± 0.42 mPa·s | 8.725 ± 0.53 mPa·s | 11 ± 0.67 mPa·s | 13.31 ± 0.82 mPa·s | 14.82 ± 0.91 mPa·s | 13.52 ± 0.84 mPa·s | 858.5 ± 3.7 kg/m3 |  | mass density ([2]; x1 = 0.0948): 815.2 ± 3.3 kg/m3; mass density ([2]; x1 = 0.193): 834.3 ± 3.4 kg/m3; mass density ([2]; x1 = 0.2908): 842.2 ± 3.4 kg/m3; mass density ([2]; x1 = 0.3981): 847.3 ± 3.5 kg/m3; mass density ([2]; x1 = 0.505): 850 ± 3.5 kg/m3; mass density ([2]; x1 = 0.5846): 852 ± 3.5 kg/m3; mass density ([2]; x1 = 0.6749): 853.3 ± 3.5 kg/m3; mass density ([2]; x1 = 0.7994): 855.8 ± 3.6 kg/m3; mass density ([2]; x1 = 0.86): 856.5 ± 3.6 kg/m3
CCCCCCCC(=O)[O-].CC[NH+](C(C)C)C(C)C [N-ethyl-N-isopropylpropan-2-aminium octanoate] + O | 36.61 ± 2.2 mPa·s | 52.36 ± 3.1 mPa·s | 42.39 ± 2.6 mPa·s | 32.19 ± 1.9 mPa·s | 27.62 ± 1.7 mPa·s | 26.19 ± 1.6 mPa·s | 21.29 ± 1.3 mPa·s | 18.05 ± 1.1 mPa·s | 16.65 ± 1 mPa·s | 13.52 ± 0.84 mPa·s | 858.5 ± 3.7 kg/m3 |  | mass density ([2]; x1 = 0.0948): 955.1 ± 3.8 kg/m3; mass density ([2]; x1 = 0.193): 927.3 ± 3.7 kg/m3; mass density ([2]; x1 = 0.2908): 905.7 ± 3.7 kg/m3; mass density ([2]; x1 = 0.3981): 890.6 ± 3.6 kg/m3; mass density ([2]; x1 = 0.505): 877.4 ± 3.6 kg/m3; mass density ([2]; x1 = 0.5846): 872.2 ± 3.6 kg/m3; mass density ([2]; x1 = 0.6749): 867.2 ± 3.6 kg/m3; mass density ([2]; x1 = 0.7994): 862.9 ± 3.6 kg/m3; mass density ([2]; x1 = 0.86): 861 ± 3.6 kg/m3
CC#N [acetonitrile] + CCCCCCC(=O)[O-].CC[NH+](C(C)C)C(C)C |  |  |  |  |  |  |  |  |  |  |  | 0.335 ± 0.021 mPa·s | mass density ([2]; x2 = 0): 768.6 ± 3.1 kg/m3
CC#N [acetonitrile] + CCCCCCCC(=O)[O-].CC[NH+](C(C)C)C(C)C |  |  |  |  |  |  |  |  |  |  |  | 0.335 ± 0.021 mPa·s | mass density ([2]; x2 = 0): 768.6 ± 3.1 kg/m3
CCCCCCC(=O)O [heptanoic acid] |  |  |  |  |  |  |  |  |  |  |  |  | mass density [1]: 918 ± 3.8 kg/m3
CCCCCCCC(=O)O [octanoic acid] |  |  |  |  |  |  |  |  |  |  |  |  | mass density [1]: 910 ± 3.7 kg/m3
O [water] + CCCCCCC(=O)[O-].CC[NH+](C(C)C)C(C)C |  |  |  |  |  |  |  |  |  |  |  | 0.891 ± 0.054 mPa·s | 
O [water] + CCCCCCCC(=O)[O-].CC[NH+](C(C)C)C(C)C |  |  |  |  |  |  |  |  |  |  |  | 0.891 ± 0.054 mPa·s | 

From the NIST ThermoML archive (doi:10.1021/je101191e)
